Experimental data from patent US20080319017A2, “Non-Anilinic Derivatives of Isothiazol-3(2H)-Thione 1,1-Dioxides As Liver X Receptor Modulators” (ASTRAZENECA AB, priority 2005, published 2008).

Target: T1, human LXRalpha (Homo sapiens, UniProt Q13133)
T1 construct: human LXRalpha (amino acid 205-447); expressed in transfected cells; host or cells: U2/OS osteosarcoma cells, electroporated with pSGGAL-LXRalpha (pSG5 backbone)
T1 sequence (Q13133 205-447): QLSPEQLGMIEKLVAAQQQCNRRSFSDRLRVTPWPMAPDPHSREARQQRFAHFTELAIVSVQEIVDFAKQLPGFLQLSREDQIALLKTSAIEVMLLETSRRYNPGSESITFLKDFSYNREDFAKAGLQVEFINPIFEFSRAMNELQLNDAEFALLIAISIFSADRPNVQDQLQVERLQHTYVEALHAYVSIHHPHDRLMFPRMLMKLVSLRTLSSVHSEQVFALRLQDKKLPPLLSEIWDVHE
Experiment: Transactivation assay (reporter gene assay), GAL4-LXRalpha LBD luciferase in U2/OS cells
Format: cell-based
Details: U2/OS osteosarcoma cells, 48 h incubation, read-out: EC50 for LXRα in the reporter gene assay
Experimental: Expression vectors were prepared by inserting the ligand binding domain cDNA (complementary DNA) of human LXRalpha (amino acid 205-447) and LXRbeta (amino acid 216-461) in frame with, 3′ to the yeast GAL4 transcription factor DNA binding domain and the nuclear localization signal from the T-antigen of Polyoma Virus in the eucaryotic expression vector pSG5 (Stratagene). The resulting expression vectors pSGGAL-LXRalpha and pSGGAL-LXRbeta were used in cotransfection experiments together with the pGL3 luciferase reporter plasmid containing a minimal SV40 promoter (Promega) and five copies of the UAS GAL4 recognition site. 2.5 μg pSGGAL-LXRalpha or beta were mixed with 25 μg pGL3 5×UAS and 22.5 μg pBluscript (Stratagene) in 0.95 mL ice cold PBS containing approx. 4-9 milj. U2/OS osteosarcoma cells. After a five minute incubation on ice the cell/DNA mixture was electroporated in 0.4 cm cuvettes at 960 μF, 230 V using a BioRad electroporator and diluted to 0.32 milj cells/mL in complete DMEM [Dulbecco's Modified Eagle Medium w/o phenol red, (Gibco 11880-028) including 10% FBS (Foetal Bovine Serum), 1% PEST (Penicillin Streptomycin), 20 mM Hepes, 2 mM L-Glutamine and 0.36% Glucose Gibco 31966-021] medium. […] Luciferase activity was measured as Luminescence in the Wallac Victor reader after 15 min. incubation at room temperature. […]

EC50	SMILES
3.1 µM	CC(C)N1C(=S)C(NC2CCN(c3ncc(C(F)(F)F)cc3Cl)CC2)=C(c2ccccc2)S1(=O)=O [Example 1, 4-({1-[3-Chloro-5-(trifluoromethyl)pyridin-2-yl]piperidin-4-yl}amino)-2-isopropyl-5-phenylisothiazole-3(2H)-thione 1,1-dioxide]
10.5 µM	CC(C)N1C(=S)C(NCCCCc2ccccc2)=C(c2ccccc2)S1(=O)=O [Example 2, 2-Isopropyl-5-phenyl-4-[(4-phenylbutyl)amino]isothiazole-3(2H)-thione 1,1-dioxide]
